Values after ≈ are worked out from the molar mass of the structure shown. Residues, ends and D or L forms follow the SMILES beside them.
Key:
Citrobacter freundii = experiment: Microbroth dilution assay, MIC; type: cell-based; conditions: overnight 37 °C, read at 600 nm, three independent experiments
Protocol: (§1) The β-defensins were tested using a microbroth dilution assay. It consists of incubating the bacteria (4.105 colony-forming unit—CFU/mL) and the peptide (from 1 to 512 µg/mL) in liquid broth. After the incubation at 37 °C during the night, the bacterial growth was detected by spectrophotometry at 600 nm. If the measure is similar to the broth, it […]. […] The β-defensins were tested against B. jararaca oral flora because it would be of biological and medical interest. In addition, we tested on E. coli ATCC 25922 and M. luteus that are common Gram-negative and Gram-positive bacteria used in antibacterial tests.
(§2) The antibacterial activity of the alkylated peptides was tested against Gram-negative (G−) bacteria (Klebsiella pneumonia, Serratia marcescens, Morganella morganii, Providencia rettgeri, Citrobacter freundii, Escherichia coli ATCC 25922 and Gram-positive (G+) bacteria (Micrococcus luteus A270 and Staphylococcus aureus) using microbroth assay. In a 96-well plate, 90 µL of 10% tryptone soy broth (TSB) with 4 × 10^5 colony-forming unit (CFU/mL) were mixed with serial twofold dilutions of β-defensins duplicate in concentrations from 512 to 1 µg/mL. The derived peptides coded as PS1, PS2, PS3, PS5, and PS6 (Table 1) were tested against these bacteria in serial twofold dilutions with concentrations bellow 700 µg/mL. After overnight incubation at 37 °C, the turbidity of the bacterial culture was read at 600 nm (Epoch microplate reader, Biotek). The minimal inhibitory concentration (MIC) of each peptide was determined as the lowest concentration that results in no visible bacterial growth. The MIC resulted from three independent experiments. The bacteria K. pneumonia, S. marcescens, M. morganii, P. rettgeri, C. freundii, M. luteus A270 and S. aureus were isolated from Bothrops jararaca buccal flora and kindly provided by Dr. Márcia R. Franzolin (Laboratory of Bacteriology—Instituto Butantan). M. luteus was kindly provided by Dr. Pedro I. da Silva Jr. (Laboratory of Applied Toxinology—Instituto Butantan).

[1] = test system: Escherichia coli ATCC 25922; experiment: Microbroth dilution assay, MIC; type: cell-based; conditions: overnight 37 °C, read at 600 nm, three independent experiments
Protocol: as §1, §2

Micrococcus luteus A270 = experiment: Microbroth dilution assay, MIC; type: cell-based; conditions: overnight 37 °C, read at 600 nm, three independent experiments
Protocol: as §1, §2

Staphylococcus aureus = experiment: Microbroth dilution assay, MIC; type: cell-based; conditions: overnight 37 °C, read at 600 nm, three independent experiments
Protocol: as §1, §2

Klebsiella pneumonia = experiment: Microbroth dilution assay, MIC; type: cell-based, Klebsiella pneumoniae; conditions: short derived peptides, 2.75 to 700 µg/mL, overnight 37 °C, read at 600 nm, three independent experiments
Protocol: as §1, §2

[2] = test system: Aspergillus fumigatus (IOC 4526); experiment: Resazurin microtiter assay plate, antifungal MIC90; type: cell-based; conditions: resazurin colour change, RPMI 1640, 1 to 250 μM, 28 °C, 24–72 h; three independent experiments
Protocol: (§3) The derived peptides were also tested against fungi species using the classical resazurin microtiter assay plate method. It is based on the color change of the rezazurin dye that in blue indicates the absence of growth in at least 90%, and pink refers to microorganism growth. MIC is determined as the minimal concentration of the sample that can prevent the color change from blue to pink and refers to the inhibition of 90% of microorganisms.
(§4) The antifungal activity was evaluated by the microdilution assay as previously described on clinical strains of Candida albicans (IOC 4525), Cryptococcus neoformans (IOC 4528), Trichophyton rubrum (IOC 4527) and Aspergillus fumigatus (IOC 4526). The fungi were cultivated in potato dextrose agar at 28 °C according to the Clinical and Laboratory Standards Institute recommendations. Fungal suspensions were prepared in RPMI 1640 culture media; the CFU/mL was adjusted to 0.5–2.5 × 10^3 for yeasts (C. albicans and C. neoformans) and 0.4–5 × 10^4 CFU/mL for filamentous fungi (T. rubrum e A. fumigatus), by comparison with a standard curve previously stablished in our laboratory.
(§5) The peptides PS1, PS2, PS, PS3, PS4, PS5 and PS6 at 1 mM in acetic acid at 0.01% were diluted in RPMI 1640 culture media at concentrations ranging from 1 to 250 μM. Amphotericin B (AMB) at concentrations below 15 μg/mL (16 μM) and acetic acid from 0.0002 to 0.0025% was used as control.
(§6) The fungi suspensions were added to a 96 well plate (100 µL/well) and the samples (100 µL) in different concentrations were added to each well. The plate was incubated at 28 °C for 24–72 h, and 24 h before the end of the assay 25 µL of the rezazurin dye at 0.02% were added to each well. The minimal inhibitory concentration (MIC90) was defined as the lowest concentration that prevents the rezazurin’s change in color from blue to pink due to the inhibition of at least 90% of the microorganism’s growth. The assays were performed in three independent experiments.

[3] = test system: Candida albicans (IOC 4525); experiment: Resazurin microtiter assay plate, antifungal MIC90; type: cell-based; conditions: resazurin colour change, RPMI 1640, 1 to 250 μM, 28 °C, 24–72 h; three independent experiments
Protocol: as §3, §4, §5, §6

[4] = test system: Cryptococcus neoformans (IOC 4528); experiment: Resazurin microtiter assay plate, antifungal MIC90; type: cell-based; conditions: resazurin colour change, RPMI 1640, 1 to 250 μM, 28 °C, 24–72 h; three independent experiments
Protocol: as §3, §4, §5, §6

[5] = test system: Trichophyton rubrum (IOC 4527); experiment: Resazurin microtiter assay plate, antifungal MIC90; type: cell-based; conditions: resazurin colour change, RPMI 1640, 1 to 250 μM, 28 °C, 24–72 h; three independent experiments
Protocol: as §3, §4, §5, §6

[6] = snake β-defensins, linear (alkylated) except native crotamine, 10% TSB, 4 × 10^5 CFU/mL, 512 to 1 µg/mL
[7] = short derived peptides, 2.75 to 700 µg/mL

For “QGQCHQQRGRCFLHQCPLSHYFLGRLDCGPGRRCCRRRK [DefbLm02, synthetic β-defensin deduced from L. muta gene, GenBank KC117172]”, the “MIC, C. freundii” value (Citrobacter freundii; [6]) was 3.4 µM, the “MIC, E. coli” value [1, 6] was 3.4 µM and the “MIC, M. luteus” value (Micrococcus luteus A270; [6]) was 0.9 µM. The “MIC, S. aureus” value (Staphylococcus aureus; [6]) was 6.8 µM.
For “QRRCRQRRGICRPRPCPPENFSLGRLDCQMGQMCCRRRFGK [DefbBm03, synthetic β-defensin deduced from B. mattogrossensis gene, GenBank KC117168]”, the “MIC, C. freundii” value (Citrobacter freundii; [6]) was 3.2 µM, the “MIC, E. coli” value [1, 6] was 1.6 µM and the “MIC, M. luteus” value (Micrococcus luteus A270; [6]) was 1.6 µM. The “MIC, S. aureus” value (Staphylococcus aureus; [6]) was greater than 103 µM.
“QPECCQEGGICHSKQCPLGYSSLGRLDCQLGQRCCIRIFGK [DefbBn02, synthetic β-defensin deduced from B. neuwiedi gene, GenBank KC117169]” was tested, and the “MIC, C. freundii” value (Citrobacter freundii; [6]) was greater than 113 µM, the “MIC, E. coli” value [1, 6] was greater than 113 µM and the “MIC, M. luteus” value (Micrococcus luteus A270; [6]) was greater than 113 µM. For the same molecule, the “MIC, S. aureus” value (Staphylococcus aureus; [6]) was greater than 113 µM.
For `CSCC[C@H](NC(=O)[C@H](CCC(N)=O)NC(=O)[C@@H](N)CO)C(=O)NCC(=O)N[C@@H](CCC(N)=O)C(=O)N[C@@H](CCSC)C(=O)N[C@@H](CO)C(=O)N[C@@H](CO)C(=O)N[C@@H](CCCNC(=N)N)C(=O)N[C@@H](CCCNC(=N)N)C(=O)N[C@@H](CCCNC(=N)N)C(=O)N[C@@H](Cc1ccccc1)C(=O)NCC(=O)N[C@@H](CCCCN)C(=O)O` [PS4] (H-SQMGQMSSRRRFGK-OH), the “MIC, C. freundii” value (Citrobacter freundii; [7]) was greater than 423 µM, the “MIC, E. coli” value [1, 7] was greater than 423 µM and the “MIC, M. luteus” value (Micrococcus luteus A270; [7]) was 26.6 µM (≈ 44 µg/mL). For the same molecule, the “MIC, S. aureus” value (Staphylococcus aureus; [7]) was greater than 423 µM, the “MIC, K. pneumoniae” value (Klebsiella pneumonia) was greater than 423 µM and the “MIC90, Aspergillus fumigatus” value [2] was greater than 250 µM. For the same molecule, the “MIC90, Candida albicans” value [3] was greater than 250 µM, the “MIC90, Cryptococcus neoformans” value [4] was greater than 250 µM and the “MIC90, Trichophyton rubrum” value [5] was greater than 250 µM.
In the case of `N=C(N)NCCC[C@H](NC(=O)[C@H](Cc1c[nH]c2ccccc12)NC(=O)[C@H](CCCNC(=N)N)NC(=O)[C@@H](N)CO)C(=O)N[C@@H](Cc1c[nH]c2ccccc12)C(=O)N[C@@H](CCCCN)C(=O)N[C@@H](CO)C(=O)O` [PS6] (H-SRWRWKS-OH), the “MIC, E. coli” value [1, 7] is reported as 697 µM (≈ 701 µg/mL), the “MIC, M. luteus” value (Micrococcus luteus A270; [7]) is reported as 43.8 µM (≈ 44 µg/mL) and the “MIC, S. aureus” value (Staphylococcus aureus; [7]) is reported as 349 µM (≈ 351 µg/mL). The “MIC, K. pneumoniae” value (Klebsiella pneumonia) was greater than 697 µM, the “MIC90, Aspergillus fumigatus” value [2] was greater than 250 µM and the “MIC90, Candida albicans” value [3] was greater than 250 µM. For the same molecule, the “MIC90, Cryptococcus neoformans” value [4] was greater than 250 µM and the “MIC90, Trichophyton rubrum” value [5] was greater than 250 µM.
“QRRCRQRRGICRPRPCPPENFSLGRLDCQMGRMCCRRRFGK [DefbBm02, synthetic β-defensin deduced from B. mattogrossensis gene, GenBank KC117167]” was tested, and the “MIC, C. freundii” value (Citrobacter freundii; [6]) was 1.6 µM, the “MIC, E. coli” value [1, 6] was 3.2 µM and the “MIC, M. luteus” value (Micrococcus luteus A270; [6]) was 0.8 µM. For the same molecule, the “MIC, S. aureus” value (Staphylococcus aureus; [6]) was 12.8 µM.
With “QEECLQQGGFCRLIRCPFGYDSLEQQDCRKGQRCCIRKPRK [DefbBj01, synthetic β-defensin deduced from B. jararaca gene, GenBank KC117163]” the “MIC, C. freundii” value (Citrobacter freundii; [6]) was greater than 105 µM, the “MIC, E. coli” value [1, 6] was greater than 105 µM and the “MIC, M. luteus” value (Micrococcus luteus A270; [6]) was 3.2 µM. For the same molecule, the “MIC, S. aureus” value (Staphylococcus aureus; [6]) was greater than 105 µM.
In the case of “QRICLGGRGFCHSTPCPRSTIDYGKKDCWGSLRCCEPKRPGK [DefbPm, synthetic β-defensin deduced from P. mertensis gene, GenBank KX664436]”, the “MIC, C. freundii” value (Citrobacter freundii; [6]) is reported as greater than 109 µM, the “MIC, E. coli” value [1, 6] is reported as greater than 109 µM and the “MIC, M. luteus” value (Micrococcus luteus A270; [6]) is reported as 6.8 µM. The “MIC, S. aureus” value (Staphylococcus aureus; [6]) was greater than 109 µM.
Crotamine was tested, and the “MIC, C. freundii” value (Citrobacter freundii; [6]) was 6.7 µM, the “MIC, E. coli” value [1, 6] was 13.3 µM and the “MIC, M. luteus” value (Micrococcus luteus A270; [6]) was 1.7 µM. The “MIC, S. aureus” value (Staphylococcus aureus; [6]) was greater than 105 µM.
With “QRRCHQKGGMCLPGPCPPGYDSLGQQDCRRGQKCCIKRFGK [DefbBju01, synthetic β-defensin deduced from B. jararacussu gene, GenBank KC117165]” the “MIC, C. freundii” value (Citrobacter freundii; [6]) was greater than 111 µM, the “MIC, E. coli” value [1, 6] was greater than 111 µM and the “MIC, M. luteus” value (Micrococcus luteus A270; [6]) was greater than 111 µM. The “MIC, S. aureus” value (Staphylococcus aureus; [6]) was greater than 111 µM.
For “QPQCRWLDGFCHSSPCPSGTTSIGQQDCLWYESCCIPRYEK [Crotasin, synthetic β-defensin deduced from C. durissus gene, GenBank AF250212]”, the “MIC, C. freundii” value (Citrobacter freundii; [6]) was greater than 108 µM, the “MIC, E. coli” value [1, 6] was greater than 108 µM and the “MIC, M. luteus” value (Micrococcus luteus A270; [6]) was greater than 108 µM. The “MIC, S. aureus” value (Staphylococcus aureus; [6]) was greater than 108 µM.
With “QEWCRGLGGFCSFYQCRPGHDLGPQDCWPERRCCRWGK [DefbLm01, synthetic β-defensin deduced from L. muta gene, GenBank KC117171]” the “MIC, C. freundii” value (Citrobacter freundii; [6]) was greater than 113 µM, the “MIC, E. coli” value [1, 6] was greater than 113 µM and the “MIC, M. luteus” value (Micrococcus luteus A270; [6]) was 28.4 µM. For the same molecule, the “MIC, S. aureus” value (Staphylococcus aureus; [6]) was greater than 113 µM.
For “QPECLRQGGMCRPRLCPYVSLGQLDCQNGHVCCRKKPRK [DefbBd03, synthetic β-defensin deduced from B. diporus gene, GenBank KC117160]”, the “MIC, C. freundii” value (Citrobacter freundii; [6]) was greater than 115 µM, the “MIC, E. coli” value [1, 6] was greater than 115 µM and the “MIC, M. luteus” value (Micrococcus luteus A270; [6]) was 0.9 µM. For the same molecule, the “MIC, S. aureus” value (Staphylococcus aureus; [6]) was greater than 115 µM.
In the case of “QDLCHNLGGRCFRNRCSWSLRNHGGQDCPWGSVCCKP [DefbTs, synthetic β-defensin deduced from T. strigatus gene, GenBank KX664429]”, the “MIC, C. freundii” value (Citrobacter freundii; [6]) is reported as greater than 122 µM, the “MIC, E. coli” value [1, 6] is reported as greater than 122 µM and the “MIC, M. luteus” value (Micrococcus luteus A270; [6]) is reported as 15.3 µM. For the same molecule, the “MIC, S. aureus” value (Staphylococcus aureus; [6]) was greater than 122 µM.
For “DPVTCLKSGAICHPVFCPRRYKQIGTCGLPGTKCCKKP [hBd02, synthetic human β-defensin, GenBank AF071216, reference compound]”, the “MIC, C. freundii” value (Citrobacter freundii; [6]) was greater than 124 µM, the “MIC, E. coli” value [1, 6] was 15.6 µM and the “MIC, M. luteus” value (Micrococcus luteus A270; [6]) was 2 µM. For the same molecule, the “MIC, S. aureus” value (Staphylococcus aureus; [6]) was greater than 124 µM.
